From US7776885B2, “Benzimidazolone compounds having 5-HT4 receptor agonistic activity” (Pfizer, Inc., priority 2003, dated 2010)
Structures can show the parent of a compound that is named as a salt.

How the values were obtained:
[1] = biological target: T1, 5-HT4 receptors in the rat oesophagus (Rattus norvegicus, UniProt Q62758); experiment: Functional assay in rat oesophagus TMM preparation (relaxation of carbachol-contracted tissue); conditions: 1 μM antagonist added to bath
T1 construct: The remaining inner tube of smooth muscle was known as the TMM; from tissue; host or cells: rat oesophagus tunica muscularis mucosae (TMM), male SD rats (Charles River)
T1 sequence (Q62758 whole entry): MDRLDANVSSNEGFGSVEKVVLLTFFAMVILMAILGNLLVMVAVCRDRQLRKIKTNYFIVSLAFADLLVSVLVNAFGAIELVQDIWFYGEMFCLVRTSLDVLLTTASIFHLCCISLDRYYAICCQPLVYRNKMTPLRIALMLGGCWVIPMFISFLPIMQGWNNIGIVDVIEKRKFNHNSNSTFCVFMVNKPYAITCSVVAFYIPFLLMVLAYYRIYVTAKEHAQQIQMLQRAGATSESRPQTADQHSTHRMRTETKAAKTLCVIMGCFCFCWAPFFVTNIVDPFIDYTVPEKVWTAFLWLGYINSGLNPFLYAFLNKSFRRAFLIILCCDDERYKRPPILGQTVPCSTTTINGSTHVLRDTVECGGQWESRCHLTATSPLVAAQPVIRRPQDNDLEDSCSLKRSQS
Description: More specifically, partial agonist activity can be measured according to the following procedures.
Male SD rats (Charles River) weighing 250-350 g were stunned and then killed by cervical dislocation. The oesophagus was dissected from immediately proximal to the stomach (including piece of stomach to mark distal end) up to the level of the trachea and then placed in fresh Krebs' solution.
The outer skeletal muscle layer was removed in one go by peeling it away from the underlying smooth muscle layer using forceps (stomach to tracheal direction). The remaining inner tube of smooth muscle was known as the TMM. This was trimmed to 2 cm from the original ‘stomach-end’ and the rest discarded.
The TMMs were mounted as whole ‘open’ tubes in longitudinal orientation in 5 ml organ baths filled with warm (32° C.) aerated Krebs. Tissues were placed under an initial tension of 750 mg and allowed to equilibrate for 60 minutes. The tissues were re-tensioned twice at 15 minute intervals during the equilibration period. The pump flow rate was set to 2 ml/min during this time.
Following equilibration, the pump was switched off. The tissues were exposed to 1 μM carbachol and contracted and reached a steady contractile plateau within 15 minutes. Tissues were then subject to 1 μM 5-HT (this was to prime the tissues). The tissues relaxed in response to 5-HT fairly rapidly—within 1 minute. […]

| Structure (SMILES) | melting point [°C] | reversal of 5-HT induced relaxation [1] |
| --- | --- | --- |
| CC(C)n1c(=O)n(C(=O)NCC2CCN(CC(=O)N3CCOCC3)CC2)c2ccccc21 (as salt: oxalate) | 194.2 | – |
| O=C(OCCN1CCCCC1)c1c[nH]c2ccccc12 [SB 203,186, 1H-Indole-3-carboxylic acid, 2-(1-piperidinyl)ethyl ester] | – | reversed 5-HT induced relaxation |
